According to ChEMBL document CHEMBL1150498, “Novel derivatives of pseudomonic acid” (Bioorg Med Chem Lett, 1997):
Converted amounts (≈) assume the structure as drawn.

Tested on: Staphylococcus aureus
Assay: Compound was evaluated for inhibitory activity against Staphylococcus aureus ATCC 6538P
Type: functional

SMILES	MIC [µg/mL]
COC(=O)CCCCCCCCOC(=O)/C=C/C[C@@H]1OC[C@H](NS(=O)(=O)CCCCl)[C@@H](O)[C@H]1O	50 (≈ 94.7 µM)
CCCS(=O)(=O)N[C@H]1CO[C@@H](C/C=C/C(=O)OCCCCCCCCC(=O)OC)[C@H](O)[C@@H]1O	> 100
CCCCS(=O)(=O)N[C@H]1CO[C@@H](C/C=C/C(=O)OCCCCCCCCC(=O)OC)[C@H](O)[C@@H]1O	> 100
COC(=O)CCCCCCCCOC(=O)/C=C/C[C@@H]1OC[C@H](NS(C)(=O)=O)[C@@H](O)[C@H]1O	> 100
COC(=O)CCCCCCCCOC(=O)/C=C/C[C@@H]1OC[C@H](NS(=O)(=O)c2cccc(Cl)c2)[C@@H](O)[C@H]1O	25 (≈ 44.5 µM)
